Results published in ChEMBL document CHEMBL5532652, “Design and synthesis of pterostilbene derivatives bearing triazole moiety that might treat DSS-induced colitis in mice through modulation of NF-κB/MAPK signaling pathways” (Eur J Med Chem, 2024).
The source made the active and inactive calls. No cut-off for these calls is given here.

Assays:
[1] = Acute toxicity in male C57BL/6 mouse assessed as effect on body weight gain at 1000 to 2000 mg/kg, po measured for 14 days; type: organism-based; conditions: in vivo, 336 h, dose 1000-2000 mg/kg, time 14 day
[2] = Acute toxicity in C57BL/6 mouse assessed as kidney damage at 1000 mg/kg, po measured for 14 days; type: organism-based; conditions: in vivo, 336 h, time 14 day
[3] = Acute toxicity in female C57BL/6 mouse assessed as hyperactivity at 1000 to 2000 mg/kg, po measured for 14 days; type: organism-based; conditions: in vivo, 336 h, dose 1000-2000 mg/kg, time 14 day
[4] = tested on: RAW264.7; test: Anti-inflammatory activity in LPS-stimulated mouse RAW264.7 cells assessed as inhibition of ERK phosphorylation preincubated with compound for 1 hr followed by LPS stimulation and measured after 30 mins by Western blot analysis; type: functional, cell-based; conditions: dose 0.5-2 µM, time 1.5 hrs
[5] = Cytotoxicity against mouse RAW264.7 cells assessed as reduction in cell viability at 20 uM incubated for 24 hrs in absence of LPS by MTT assay; type: toxicity, cell-based
[6] = tested on: Mus musculus; test: Anti-inflammatory activity against DSS-induced acute colitis C57BL/6J mouse model assessed as decrease in neutrophil infiltration in colon at 10 to 20 mg/kg, po measured for 7 days; type: functional, organism-based; conditions: dose 10-20 mg/kg, time 7.0 day
[7] = Acute toxicity in C57BL/6 mouse assessed as heart damage at 1000 mg/kg, po measured for 14 days; type: organism-based; conditions: in vivo, 336 h, time 14 day
[8] = tested on: RAW264.7; test: Anti-inflammatory activity in LPS-stimulated mouse RAW264.7 cells assessed as inhibition of p65 phosphorylation at 0.5 to 2 uM preincubated with compound for 1 hr followed by LPS stimulation and measured after 30 mins by Western blot analysis; type: functional, cell-based; conditions: dose 0.5-2 µM, time 1.5 hrs
[9] = tested on: Mus musculus; test: Anti-inflammatory activity against DSS-induced acute colitis C57BL/6J mouse model assessed as decrease in colon length at 10 to 20 mg/kg, po measured for 7 days; type: functional, organism-based; conditions: dose 10-20 mg/kg, time 7.0 day
[10] = Acute toxicity in male C57BL/6 mouse assessed as anorexia at 1000 to 2000 mg/kg, po measured for 14 days; type: organism-based; conditions: in vivo, 336 h, dose 1000-2000 mg/kg, time 14 day
[11] = tested on: RAW264.7; test: Anti-inflammatory activity against LPS-stimulated mouse RAW264.7 cells assessed as reduction in LPS-induced COX-2 level preincubated with compound for 1 hr followed by LPS stimulation and measured after 24 hrs by Western blot analysis; type: functional, cell-based; conditions: dose 0.5-2 µM, time 25.0 hrs
[12] = tested on: RAW264.7; test: Anti-inflammatory activity in LPS-stimulated mouse RAW264.7 cells assessed as reduction in ERK level at 0.5 to 2 uM preincubated with compound for 1 hr followed by LPS stimulation and measured after 30 mins by Western blot analysis; type: functional, cell-based; conditions: dose 0.5-2 µM, time 1.5 hrs
[13] = tested on: RAW264.7; test: Anti-inflammatory activity in mouse RAW264.7 cells assessed as inhibition of LPS-induced NO production incubated pretreated with compound for 1 hr followed by LPS-induction and measured after 24 hrs by Griess reagent based assay; type: functional, cell-based
[14] = Cytotoxicity against mouse RAW264.7 cells assessed as reduction in cell viability at 20 uM incubated for 24 hrs in presence of LPS by MTT assay; type: toxicity, cell-based
[15] = Acute toxicity in male C57BL/6 mouse assessed as effect on fur laxity at 1000 to 2000 mg/kg, po measured for 14 days; type: organism-based; conditions: in vivo, 336 h, dose 1000-2000 mg/kg, time 14 day
[16] = tested on: RAW264.7; test: Anti-inflammatory activity in mouse RAW264.7 cells assessed as inhibition of LPS-induced NO production at 10 uM incubated pretreated with compound for 1 hr followed by LPS-induction and measured after 24 hrs by Griess reagent based assay relative to control; type: functional; conditions: time 25 hrs
[17] = tested on: Mus musculus; test: Anti-inflammatory activity against DSS-induced acute colitis C57BL/6J mouse model assessed as reduction in MPO level in colon at 10 to 20 mg/kg, po measured for 7 days; type: functional, organism-based; conditions: dose 10-20 mg/kg, time 7.0 day
[18] = tested on: RAW264.7; test: Anti-inflammatory activity against LPS-stimulated mouse RAW264.7 cells assessed as downregulation of LPS-induced iNOS expression at 0.5 to 2 uM preincubated with compound for 1 hr followed by LPS stimulation and measured after 24 hrs by Western blot analysis; type: functional, cell-based; conditions: dose 0.5-2 µM, time 25.0 hrs
[19] = Acute toxicity in C57BL/6 mouse assessed as spleen damage at 1000 mg/kg, po measured for 14 days; type: organism-based; conditions: in vivo, 336 h, time 14 day
[20] = Acute toxicity in female C57BL/6 mouse assessed as anorexia at 1000 to 2000 mg/kg, po measured for 14 days; type: organism-based; conditions: in vivo, 336 h, dose 1000-2000 mg/kg, time 14 day
[21] = tested on: Mus musculus; test: Anti-inflammatory activity against DSS-induced acute colitis C57BL/6J mouse model assessed as reduction in TNF-alpha level in colon at 10 to 20 mg/kg, po measured for 7 days by ELISA analysis; type: functional, organism-based; conditions: dose 10-20 mg/kg, time 7.0 day
[22] = tested on: Mus musculus; test: Anti-inflammatory activity against DSS-induced acute colitis C57BL/6J mouse model assessed as reduction in IL-6 level in colon at 10 to 20 mg/kg, po measured for 7 days by ELISA analysis; type: functional, organism-based; conditions: dose 10-20 mg/kg, time 7.0 day
[23] = tested on: RAW264.7; test: Anti-inflammatory activity in LPS-stimulated mouse RAW264.7 cells assessed as inhibition of IkappaB phosphorylation at 0.5 to 2 uM preincubated with compound for 1 hr followed by LPS stimulation and measured after 30 mins by Western blot analysis; type: functional, cell-based; conditions: dose 0.5-2 µM, time 1.5 hrs
[24] = tested on: RAW264.7; test: Anti-inflammatory activity against LPS-stimulated mouse RAW264.7 cells assessed as reduction in LPS-induced iNOS level preincubated with compound for 1 hr followed by LPS stimulation and measured after 24 hrs by Western blot analysis; type: functional, cell-based; conditions: dose 0.5-2 µM, time 25.0 hrs
[25] = tested on: RAW264.7; test: Anti-inflammatory activity in LPS-stimulated mouse RAW264.7 cells assessed as reduction in JNK level at 0.5 to 2 uM preincubated with compound for 1 hr followed by LPS stimulation and measured after 30 mins by Western blot analysis; type: functional, cell-based; conditions: dose 0.5-2 µM, time 1.5 hrs
[26] = tested on: RAW264.7; test: Anti-inflammatory activity in LPS-stimulated mouse RAW264.7 cells assessed as inhibition of JNK phosphorylation preincubated with compound for 1 hr followed by LPS stimulation and measured after 30 mins by Western blot analysis; type: functional, cell-based; conditions: dose 0.5-2 µM, time 1.5 hrs
[27] = Acute toxicity in male C57BL/6 mouse assessed as lethargy at 1000 to 2000 mg/kg, po measured for 14 days; type: organism-based; conditions: in vivo, 336 h, dose 1000-2000 mg/kg, time 14 day
[28] = tested on: Mus musculus; test: Anti-inflammatory activity against DSS-induced acute colitis C57BL/6J mouse model assessed as reduction in IL-1beta level in colon at 10 to 20 mg/kg, po measured for 7 days by ELISA analysis; type: functional, organism-based; conditions: dose 10-20 mg/kg, time 7.0 day
[29] = tested on: RAW264.7; test: Anti-inflammatory activity in LPS-stimulated mouse RAW264.7 cells assessed as reduction in p38 level at 0.5 to 2 uM preincubated with compound for 1 hr followed by LPS stimulation and measured after 30 mins by Western blot analysis; type: functional, cell-based; conditions: dose 0.5-2 µM, time 1.5 hrs
[30] = tested on: RAW264.7; test: Anti-inflammatory activity against LPS-stimulated mouse RAW264.7 cells assessed as downregulation of LPS-induced COX-2 expression at 0.5 to 2 uM preincubated with compound for 1 hr followed by LPS stimulation and measured after 24 hrs by Western blot analysis; type: functional, cell-based; conditions: dose 0.5-2 µM, time 25.0 hrs
[31] = tested on: Mus musculus; test: Anti-inflammatory activity against DSS-induced acute colitis C57BL/6J mouse model assessed as disappearance of crypt foci in colon at 10 to 20 mg/kg, po measured for 7 days; type: functional, organism-based; conditions: dose 10-20 mg/kg, time 7.0 day
[32] = Toxicity in C57BL/6 mouse assessed as body weight loss at 20 mg/kg, po measured for 7 days; type: organism-based; conditions: in vivo, 168 h, time 7 day
[33] = Acute toxicity in C57BL/6 mouse assessed as liver damage at 1000 mg/kg, po measured for 14 days; type: organism-based; conditions: in vivo, 336 h, time 14 day

C=CCOc1ccc(/C=C/c2cc(OC)cc(OC)c2-c2cnnn2C(=O)NCCCl)cc1
Activity [1]: Non-Toxic
Activity [2]: Non-Toxic
Activity [3]: Non-Toxic
Activity [4]: Dose-Dependent Effect
IC50 at 24 h [5]: > 50 µM
Activity [6]: Active
Activity [7]: Non-Toxic
Activity [8]: Active
Activity [9]: Active
Activity [10]: Non-Toxic
Activity [11]: Dose-Dependent Effect
Activity [12]: Active
IC50 [13]: 0.6 µM
IC50 at 24 h [14]: > 50 µM
Activity [15]: Non-Toxic
inhibition at 10 µM [16]: 98%
Activity [17]: Active
Activity [18]: Active
Activity [19]: Non-Toxic
Activity [20]: Non-Toxic
Activity [21]: Active
Activity [22]: Active
Activity [23]: Active
Activity [24]: Dose-Dependent Effect
Activity [25]: Active
Activity [26]: Dose-Dependent Effect
Activity [27]: Non-Toxic
Activity [28]: Active
Activity [29]: Active
Activity [30]: Active
Activity [31]: Active
Activity [32]: Toxic
Activity [33]: Non-Toxic
